# Article PMC6837725
# Assay: Intramolecular Suzuki-Miyaura C(sp3)-C(sp2) coupling (cis-4-chlorocyclobut-2-ene carboxylate + E-vinyl-BPin) followed by spontaneous 4pi-electrocyclic ring opening to the (E,E,E)-trienoate macrolactone; Pd(PPh3)4 10 mol%, Cs2CO3 5 equiv
# Settings: 19-membered ring, THF/H2O 3:1, 2.0 mM, 25.0 °C
smiles,measurement,setting,value
"CCCCCCC/C=C/C=C(\C)[C@H]1CC(=O)NC[C@H](O[Si](C)(C)C(C)(C)C)CC(=O)NCC/C=C/C=C/C=C/C(=O)O1 [cis-31f -> 32f (FR3, C12-desmethyl)]","ring closure, isolated yield",from CCCCCCC/C=C/C=C(\C)[C@@H](CC(=O)NC[C@@H](CC(=O)NCC/C=C/B1OC(C)(C)C(C)(C)O1)O[Si](C)(C)C(C)(C)C)OC(=O)C1C=CC1Cl,73%
CCCCCCCCC/C=C/C=C(\C)[C@H]1CC(=O)NC[C@H](O[Si](C)(C)C(C)(C)C)[C@H](C)C(=O)NCC/C=C/C=C/C=C/C(=O)O1 [cis-31b -> 32b (FR252922)],"ring closure, isolated yield",from CCCCCCCCC/C=C/C=C(\C)[C@@H](CC(=O)NC[C@H](O[Si](C)(C)C(C)(C)C)[C@H](C)C(=O)NCC/C=C/B1OC(C)(C)C(C)(C)O1)OC(=O)C1C=CC1Cl,82%
"C[C@@H]1C(=O)NCC/C=C/C=C/C=C/C(=O)O[C@@H](c2ccc(Br)cc2)CC(=O)NC[C@@H]1O[Si](C)(C)C(C)(C)C [cis-31l -> 32l (FR9, 4-bromophenyl)]","ring closure, isolated yield",from C[C@H](C(=O)NCC/C=C/B1OC(C)(C)C(C)(C)O1)[C@H](CNC(=O)C[C@@H](OC(=O)C1C=CC1Cl)c1ccc(Br)cc1)O[Si](C)(C)C(C)(C)C,58%
"C/C(=C\C=C\c1ccc(C(F)(F)F)cc1)[C@H]1CC(=O)NC[C@H](O[Si](C)(C)C(C)(C)C)[C@H](C)C(=O)NCC/C=C/C=C/C=C/C(=O)O1 [cis-31k -> 32k (FR8, p-CF3-phenyl-dienyl)]","ring closure, isolated yield",from C/C(=C\C=C\c1ccc(C(F)(F)F)cc1)[C@@H](CC(=O)NC[C@H](O[Si](C)(C)C(C)(C)C)[C@H](C)C(=O)NCC/C=C/B1OC(C)(C)C(C)(C)O1)OC(=O)C1C=CC1Cl,47%
"CCCCCCC/C=C/C=C(\C)[C@H]1CC(=O)NCCCC(=O)NCC/C=C/C=C/C=C/C(=O)O1 [cis-31g -> FR4 (no C12-Me, no C13-O)]","ring closure, isolated yield",from CCCCCCC/C=C/C=C(\C)[C@@H](CC(=O)NCCCC(=O)NCC/C=C/B1OC(C)(C)C(C)(C)O1)OC(=O)C1C=CC1Cl,55%
"C/C(=C\C=C\c1ccccc1)[C@H]1CC(=O)NC[C@H](O[Si](C)(C)C(C)(C)C)[C@H](C)C(=O)NCC/C=C/C=C/C=C/C(=O)O1 [cis-31i -> 32i (FR6, Ph-dienyl)]","ring closure, isolated yield",from C/C(=C\C=C\c1ccccc1)[C@@H](CC(=O)NC[C@H](O[Si](C)(C)C(C)(C)C)[C@H](C)C(=O)NCC/C=C/B1OC(C)(C)C(C)(C)O1)OC(=O)C1C=CC1Cl,80%
C[C@@H]1C(=O)NCC/C=C/C=C/C=C/C(=O)O[C@@H](C)CC(=O)NC[C@@H]1O[Si](C)(C)C(C)(C)C,"ring closure, isolated yield",from C[C@H](C(=O)NCC/C=C/B1OC(C)(C)C(C)(C)O1)[C@H](CNC(=O)C[C@H](C)OC(=O)C1C=CC1Cl)O[Si](C)(C)C(C)(C)C,84%
CCCCCCC/C=C/C=C/C=C(\C)[C@H]1CC(=O)NC[C@H](O[Si](C)(C)C(C)(C)C)[C@H](C)C(=O)NCC/C=C/C=C/C=C/C(=O)O1 [cis-31c -> 32c (FR256523)],"ring closure, isolated yield",from CCCCCCC/C=C/C=C/C=C(\C)[C@@H](CC(=O)NC[C@H](O[Si](C)(C)C(C)(C)C)[C@H](C)C(=O)NCC/C=C/B1OC(C)(C)C(C)(C)O1)OC(=O)C1C=CC1Cl,71%
"C[C@@H]1C(=O)NCC/C=C/C=C/C=C/C(=O)O[C@@H](c2ccc3ccccc3c2)CC(=O)NC[C@@H]1O[Si](C)(C)C(C)(C)C [cis-31n -> 32n (FR11, 2-naphthyl)]","ring closure, isolated yield",from C[C@H](C(=O)NCC/C=C/B1OC(C)(C)C(C)(C)O1)[C@H](CNC(=O)C[C@@H](OC(=O)C1C=CC1Cl)c1ccc2ccccc2c1)O[Si](C)(C)C(C)(C)C,51%
"C/C(=C\C=C\c1ccc(C)cc1)[C@H]1CC(=O)NC[C@H](O[Si](C)(C)C(C)(C)C)[C@H](C)C(=O)NCC/C=C/C=C/C=C/C(=O)O1 [cis-31j -> 32j (FR7, p-tolyl-dienyl)]","ring closure, isolated yield",from C/C(=C\C=C\c1ccc(C)cc1)[C@@H](CC(=O)NC[C@H](O[Si](C)(C)C(C)(C)C)[C@H](C)C(=O)NCC/C=C/B1OC(C)(C)C(C)(C)O1)OC(=O)C1C=CC1Cl,20%
CCCCCCC/C=C/C=C(\C)[C@H]1CC(=O)NC[C@H](O[Si](C)(C)C(C)(C)C)[C@H](C)C(=O)NCC/C=C/C=C/C=C/C(=O)O1 [cis-31a -> 32a (FR252921)],"ring closure, isolated yield",from CCCCCCC/C=C/C=C(\C)[C@@H](CC(=O)NC[C@H](O[Si](C)(C)C(C)(C)C)[C@H](C)C(=O)NCC/C=C/B1OC(C)(C)C(C)(C)O1)OC(=O)C1C=CC1Cl,74%
"C/C(=C\Br)[C@H]1CC(=O)NC[C@H](O[Si](C)(C)C(C)(C)C)[C@H](C)C(=O)NCC/C=C/C=C/C=C/C(=O)O1 [cis-31m -> 32m (FR10, bromovinyl)]","ring closure, isolated yield",from C/C(=C\Br)[C@@H](CC(=O)NC[C@H](O[Si](C)(C)C(C)(C)C)[C@H](C)C(=O)NCC/C=C/B1OC(C)(C)C(C)(C)O1)OC(=O)C1C=CC1Cl,54%
C/C(=C\C=C\C(F)(F)F)[C@H]1CC(=O)NC[C@H](O[Si](C)(C)C(C)(C)C)[C@H](C)C(=O)NCC/C=C/C=C/C=C/C(=O)O1,"ring closure, isolated yield",from C/C(=C\C=C\C(F)(F)F)[C@@H](CC(=O)NC[C@H](O[Si](C)(C)C(C)(C)C)[C@H](C)C(=O)NCC/C=C/B1OC(C)(C)C(C)(C)O1)OC(=O)C1C=CC1Cl,73%
"CCCCCCCCCCC[C@H]1CC(=O)NC[C@H](O[Si](C)(C)C(C)(C)C)[C@H](C)C(=O)NCC/C=C/C=C/C=C/C(=O)O1 [cis-31d -> 32d (FR1, C11H23 side chain)]","ring closure, isolated yield",from CCCCCCCCCCC[C@@H](CC(=O)NC[C@H](O[Si](C)(C)C(C)(C)C)[C@H](C)C(=O)NCC/C=C/B1OC(C)(C)C(C)(C)O1)OC(=O)C1C=CC1Cl,56%
